Laboratory results: patent publication US20250302767A1, “TREATMENT OF CANCER AND AUTOIMMUNE DISORDERS USING NANO POLYMERS OF HISTONE DEACETYLASE INHIBITORS” (University of Virginia Patent Foundation, priority 2021, published 2025)
Read-outs that look alike come from different tables or passages of the source.

Tests used:
H9 (CTCL) = test: Cell viability assay ([…]-GLO); assay type: cell-based; settings: Homo sapiens, 60 h, read-out: IC50 in nM at 60 Hours
Text: (§1) Cell lines. The T cell lymphoma cell lines HH and H9 (both Cutaneous T Cell Lymphomas; CTCL), SUP-T1 (T Cell Lymphoblastic Lymphoma) and FEPD and SUP-M2 (ALK-negative anaplastic large cell lymphoma; ALCL), were obtained from ATCC. NKL (Natural killer cell lymphoblastic leukemia/lymphoma) cell lines (Robertson et al., 1996) were also employed. The cutaneous melanoma cell line FM3-29 was obtained from DSMZ. The Large Granular Lymphocyte (LGL) leukemia cell line TL-1 was generated in the Loughran lab. All cells were grown at 37° C. and 5% CO2 in a humidified incubator. Cell lines were authenticated by short tandem repeat DNA profiling (Genetica DNA laboratories) and tested for mycoplasma contamination routinely using the MycoAlert PLUS detection kit (Lonza #LT07-710). Experiments were performed within 6 weeks of thawing. HH, H9, SUP-T1, FEPD and FM3-29 cells were cultured in RPMI-1640 (Corning, Glendale, AZ) with 10% FBS (Thermofisher Scientific, Waltham, MA). SUP-M2 cells were cultured in RPMI-1640 with 20% FBS. TL-1 cells were cultured in RPMI-1640 with 10% FBS and supplemented with 200 U/ml IL-2 (Miltenyi Biotec cat #130-097-743). NKL cells were cultured in RPMI-1640 with 10% FBS and supplemented with 100 U/ml IL-2.
(§2) Cell Viability Assay. For cell viability, cell lines were plated at the appropriate cell densities (SUP-T1, HH, NKL and TL-1 at 100,000 cells/ml/well and H9, FEPD SUP-M2 and FM3-29 at 50,000 cells/ml/well) in a 48-well plate. […] Cells were harvested after 24, 60, and 96 hours of incubation at 37° C., 5% CO2 and assayed for cell viability, using […]-GLO® (Promega) luminescence reagent, by quantifying the amount of ATP present. After 15 minutes of adding […]-GLO® reagent at a 1:1 ratio, luminescence was read on a GLOMAX® Discover Microplate Reader (Promega). Luminescence was normalized to untreated control, which was defined as 100% viability.

[1] = system: SUP-T1 (T Cell Lymphoblastic Lymphoma); test: Cell viability assay ([…]-GLO); assay type: cell-based; settings: Homo sapiens, SUP-T1, 60 h, read-out: IC50 in nM at 60 Hours
Text: as §1, §2

HH (CTCL) = test: Cell viability assay ([…]-GLO); assay type: cell-based; settings: Homo sapiens, 60 h, read-out: IC50 in nM at 60 Hours
Text: as §1, §2

FEPD (ALCL) = test: Cell viability assay ([…]-GLO); assay type: cell-based; settings: Homo sapiens, 60 h, read-out: IC50 in nM at 60 Hours
Text: as §1, §2

SUP-M2 (ALK-ALCL) = test: Cell viability assay ([…]-GLO); assay type: cell-based; settings: Homo sapiens, SUP-M2, 60 h, read-out: IC50 in nM at 60 Hours
Text: as §1, §2

[2] = system: FM3-29 (cutaneous melanoma); test: Cell viability assay ([…]-GLO); assay type: cell-based; settings: Homo sapiens, 60 h, read-out: IC50 in nM at 60 Hours
Text: as §1, §2

[3] = system: NKL (Natural killer cell lymphoblastic leukemia/lymphoma); test: Cell viability assay ([…]-GLO); assay type: cell-based; settings: Homo sapiens, 60 h, read-out: IC50 in nM at 60 Hours
Text: as §1, §2

[4] = Pharmacokinetic study, romidepsin in plasma; settings: mouse, in vivo, 2.5 mg/kg
Experimental: Each treatment cohort was further divided into two sub-cohorts depending upon the route of administration (IP or IV). […] Mice were sacrificed (n=3 per time point) at 1, 3, 6, 18, 24, 48, and 72 hours after the treatment. Blood (˜1 mL) was collected via terminal cardiac puncture under CO2 anesthesia and collected in EDTA-coated K3EDTA tubes followed by centrifugation (2000×g for 15 min) to isolate plasma. Plasma was placed in cryopreservation vials and preserved by snap freezing using liquid nitrogen. Blood from three untreated mice was collected at the beginning of the treatment (T=0) and used as a control.
For efficacy study: 5- to 7-week-old female NOD.Cg-Prkdcscid Il2rgtm1Wjl/SzJ mice (The Jackson Laboratory). were injected with 3 million a fluorescent protein, Chili (dTomato-absorption max and emission max at 554 nm and 581 nm respectively)—and a bioluminescence generating protein, firefly luciferase (Luc) expressing H9 cells subcutaneously in the flank. In vivo BLI analysis was conducted on a cryogenically cooled Lago X (Spectral Instruments Imaging system). Mice were imaged twice a week starting 4 days after inoculation of cells. […] Baseline imaging data were recorded for all mice on day 1 (start of drug administration) and on each day of drug administration before the treatment. The numbers of animals, study design, and treatment of animals were reviewed, and approved by the Institutional Animal Care and Use Committee (IACUC) of the University of Virginia, Charlottesville, Virginia, United States of America.

BALB/c mice = test: Repeated dose toxicity study; assay type: in vivo
Text: FIGS. 14A and 14B. […] Depicted are the percentage of body weight changes as a percentage of starting weights with SEM (FIG. 14A; n=5 mice/group) and clinical score with SEM (FIG. 14B; n=5 mice/group).
In vivo studies. For single dose toxicity study, five to seven-week old female BALB/c mice were chosen for the MTD study. Animals were randomly assigned to dose groups based on body weight. […] Mice were divided into two cohorts for Nano-romidepsin (NanoRomi) and free romidepsin. Each cohort was divided into sub-cohorts. Each sub cohort (n=5) received a single treatment of following doses: 1, 2, 3, 5, and 8 mg/kg body weight by intreaperitoneal (IP) and intravenous (IV) route of administration. NanoRomi was diluted under sterile conditions in phosphate buffered saline (PBS). Romidepsin was prepared in DMSO and then diluted with PBS under sterile condition. […] The mice were monitored for 7 days after the last treatment. For single dose and repeated dose toxicity study, we used two endpoints: weight loss and clinical score. Clinical signs were scored by observing activity, appearance (hair coat and eyes/nose), posture, and body condition with a maximum of 3 points going to each (0, normal; 1 slight deviation from normal; 2, moderate deviation from normal, 3, severe deviation from normal). Euthanasia criteria included weight loss either >20% weight loss or reached a clinical score >6.

PTCL = settings: cited from earlier work; for Outcomes: ORR / Outcomes: CR / Outcomes: DOR: patients with PTCL; for response, share of patients: R/R PTCL
[5] = single agent, pivotal trial cited per drug (romidepsin: trial (6))

C/C=C1\NC(=O)[C@H]2CSSCC/C=C/[C@H](CC(=O)N[C@H](C(C)C)C(=O)N2)OC(=O)[C@H](C(C)C)NC1=O [Romidepsin, (1S,4S,7Z,10S,16E,21R)-7-Ethylidene-4,21-diisopropyl-2-oxa-12,13-dithia-5,8,20,23-tetrazabicyclo[8.7.6]tricos-16-ene-3,6,9,19,22-pentone]
IC50 (H9 (CTCL)): 1.4 nM | IC50 [1]: 1.9 nM | IC50 (HH (CTCL)): 1.3 nM | IC50 (FEPD (ALCL)): 1.6 nM | IC50 (SUP-M2 (ALK-ALCL)): 1.6 nM | IC50 [2]: 0.6 nM | IC50 [3]: 0.7 nM | AUC(0-inf) ([4]; ip): 1930 ng·h/mL | AUC(0-t) ([4]; ip): 1920 ng·h/mL | Cmax ([4]; ip): 120 ng/mL | MRT inf ([4]; ip): 12.8 h | Tmax ([4]; ip): 6 h | Vd/F ([4]; ip): 20 L/kg | half-life ([4]; ip): 9.83 h | AUC(0-inf) ([4]; iv): 108 ng·h/mL | AUC(0-t) ([4]; iv): 99.3 ng·h/mL | Cmax ([4]; iv): 21.3 ng/mL | MRT inf ([4]; iv): 5.53 h | Tmax ([4]; iv): 1 h | half-life ([4]; iv): 5.22 h | body weight change (BALB/c mice; 3 mg/kg IP on days 1, 4, 8 and 11): severe body weight loss | deaths during the experimental period (BALB/c mice; 2 and 3 mg/kg IP on days 1, 4, 8 and 11): 1 mouse | Outcomes: ORR (PTCL; single agent, pivotal trial cited per drug (romidepsin: trial (6) Coiffier et al., 2014)): 25% | Outcomes: CR (PTCL; [5]): 15% | Outcomes: DOR (PTCL; [5]): 28 months | Outcomes: CR (PTCL; trial (7) Piekarz et al., 2011): 18% | Outcomes: DOR (PTCL; trial (7) Piekarz et al., 2011): 8.9 months | Outcomes: ORR (PTCL; trial (7) Piekarz et al., 2011): 38% | response, share of patients (PTCL; single agent): 25% | response, share of patients (PTCL; single agent, listed as romidepsin): about 25%
